According to ChEMBL document CHEMBL1201862, “PubChem BioAssay data set” (2004):
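Values below derive from 48-hour exposures of cells grown in 96-well plates, with endpoints linearly interpolated between the two concentrations bracketing the appropriate inhibition level. GI50 = concentration required for 50% inhibition of growth.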 The source made the active and inactive calls. Rule as the data show it: active = GI50 up to about 1.1 µM and inactive = higher.

How the values were obtained:
Assay in all cases: NCI anticancer screen, dose series, 48 h
SK-OV-3 = test system: SK-OV-3
OVCAR-4 = test system: OVCAR-4
HL-60 = test system: HL-60
786-0 = test system: 786-0
SN12C = test system: SN12C
KM12 = test system: KM12
SF-295 = test system: SF-295
UO-31 = test system: UO-31
SNB-75 = test system: SNB-75
SK-MEL-2 = test system: SK-MEL-2
COLO 205 = test system: COLO 205
HOP-92 = test system: HOP-92
SNB-19 = test system: SNB-19
NCI-H460 = test system: NCI-H460
ACHN = test system: ACHN
RXF 393 = test system: RXF 393
HCT-15 = test system: HCT-15
LOX IMVI = test system: LOX IMVI
Malme-3M = test system: Malme-3M
A498 = test system: A498

| Structure (SMILES) | GI50 (SK-OV-3) | GI50 (OVCAR-4) | GI50 (HL-60) | GI50 (786-0) | GI50 (SN12C) | GI50 (KM12) | GI50 (SF-295) | GI50 (UO-31) | GI50 (SNB-75) | GI50 (SK-MEL-2) | GI50 (COLO 205) | GI50 (HOP-92) | GI50 (SNB-19) | GI50 (NCI-H460) | GI50 (ACHN) | GI50 (RXF 393) | GI50 (HCT-15) | GI50 (LOX IMVI) | GI50 (Malme-3M) | GI50 (A498) |
| --- | --- | --- | --- | --- | --- | --- | --- | --- | --- | --- | --- | --- | --- | --- | --- | --- | --- | --- | --- | --- |
| COc1ccc(C(=O)C(c2ccc(OC)cc2)C2(O)C(=O)Nc3c(Cl)cc(Cl)cc32)cc1 (stereo unspecified) | 50.7 µM (inactive) | 6.34 µM (inactive) | 4.68 µM (inactive) | 14.3 µM (inactive) | 18.7 µM (inactive) | 17.8 µM (inactive) | 19.3 µM (inactive) | 27.7 µM (inactive) | 22.9 µM (inactive) | 14.1 µM (inactive) | 29.4 µM (inactive) | 15.3 µM (inactive) | 23.8 µM (inactive) | 20.7 µM (inactive) | 22.8 µM (inactive) | 22.3 µM (inactive) | 21.5 µM | 19.3 µM (inactive) | 15.5 µM (inactive) |  |
| O=C1OC(CC(=O)c2ccccc2Cl)C(Cl)=C1Cl (stereo unspecified) | > 100 µM (inactive) | > 100 µM (inactive) | > 100 µM (inactive) | > 100 µM (inactive) | > 100 µM (inactive) | > 100 µM (inactive) | > 100 µM (inactive) | > 100 µM (inactive) |  | > 100 µM (inactive) | > 100 µM (inactive) | > 100 µM (inactive) | > 100 µM (inactive) | > 100 µM (inactive) | > 100 µM (inactive) | > 100 µM (inactive) | > 100 µM | > 100 µM (inactive) | > 100 µM (inactive) |  |
| O=P(c1ccccc1)(c1ccccc1)c1ccc2c(c1)OCCOCCOCCOCCO2 | > 100 µM (inactive) |  | > 100 µM (inactive) | > 100 µM (inactive) | > 100 µM (inactive) | > 100 µM (inactive) | > 100 µM (inactive) | > 100 µM (inactive) | > 100 µM (inactive) |  | > 100 µM (inactive) |  | > 100 µM (inactive) | > 100 µM (inactive) | > 100 µM (inactive) |  | > 100 µM | > 100 µM (inactive) | > 100 µM (inactive) | > 100 µM (inactive) |
| N#Cc1c(-c2cccc(Br)c2)cc(-c2ccc(Cl)cc2)nc1N | 16.8 µM (inactive) | 0.514 µM (active) | 31 µM (inactive) | 20.3 µM (inactive) | 19.1 µM (inactive) | 20.9 µM (inactive) | 16.6 µM (inactive) | 19 µM (inactive) |  | 11.6 µM (inactive) | 13.7 µM (inactive) | 11.2 µM (inactive) | 18.7 µM (inactive) | 21.2 µM (inactive) | 21.8 µM (inactive) | 15.8 µM (inactive) | 14.1 µM | 15.8 µM (inactive) | 23.7 µM (inactive) |  |
| COC(=O)C1Cc2ccc3c(c2C1=O)CCCC3 (stereo unspecified) | > 100 µM (inactive) | > 100 µM (inactive) | > 100 µM (inactive) | > 100 µM (inactive) | > 100 µM (inactive) | > 100 µM (inactive) | 71.4 µM (inactive) | 61.4 µM (inactive) | 89.7 µM (inactive) | > 100 µM (inactive) | > 100 µM (inactive) |  | > 100 µM (inactive) | > 100 µM (inactive) | > 100 µM (inactive) |  | 69.5 µM | 38.1 µM (inactive) | > 100 µM (inactive) | > 100 µM (inactive) |
| O=C1OC2C=CCC1C2 (stereo unspecified) | > 100 µM (inactive) |  | > 100 µM (inactive) | > 100 µM (inactive) | > 100 µM (inactive) | > 100 µM (inactive) | > 100 µM (inactive) | > 100 µM (inactive) | > 100 µM (inactive) | > 100 µM (inactive) | > 100 µM (inactive) |  | > 100 µM (inactive) | > 100 µM (inactive) | > 100 µM (inactive) |  | > 100 µM | > 100 µM (inactive) | > 100 µM (inactive) | > 100 µM (inactive) |
| O=C1C=C(c2c(O)ccc3ccccc23)c2cc(O)ccc2C1=O | 23.5 µM (inactive) | 11.1 µM (inactive) | 2.02 µM (inactive) | 18.7 µM (inactive) | 18.2 µM (inactive) | 16.1 µM (inactive) | 18.5 µM (inactive) | 19.6 µM (inactive) | 25.4 µM (inactive) | 20.1 µM (inactive) | 19.5 µM (inactive) | 16.1 µM (inactive) | 17.5 µM (inactive) | 20.3 µM (inactive) | 17.4 µM (inactive) | 14.6 µM (inactive) | 16.7 µM | 11.5 µM (inactive) | 19.2 µM (inactive) |  |
| N#Cc1nc2cc(Cl)ccc2nc1N1CCN(c2ccc([N+](=O)[O-])cc2)CC1 | > 100 µM (inactive) | > 100 µM (inactive) |  | > 100 µM (inactive) | > 100 µM (inactive) | > 100 µM (inactive) | > 100 µM (inactive) | > 100 µM (inactive) | > 100 µM (inactive) |  | > 100 µM (inactive) |  | > 100 µM (inactive) | > 100 µM (inactive) | > 100 µM (inactive) | > 100 µM (inactive) | > 100 µM |  |  | > 100 µM (inactive) |
| O=[N+]([O-])c1ccc(-n2nc3ccc4c(no[n+]4[O-])c3n2)cc1 | > 100 µM (inactive) | > 100 µM (inactive) | 7.35 µM (inactive) | > 100 µM (inactive) | > 100 µM (inactive) | > 100 µM (inactive) | > 100 µM (inactive) | 15.1 µM (inactive) | 61.7 µM (inactive) | > 100 µM (inactive) | > 100 µM (inactive) | 5.82 µM (inactive) | > 100 µM (inactive) | 33.2 µM (inactive) | 7.11 µM (inactive) |  | > 100 µM | > 100 µM (inactive) | > 100 µM (inactive) |  |
| CSC1=N/C(=C\c2ccc(C)cc2)C(=O)N1 | > 100 µM (inactive) | > 100 µM (inactive) | 54.8 µM (inactive) | 45.8 µM (inactive) | > 100 µM (inactive) | > 100 µM (inactive) | 65 µM (inactive) | 47.8 µM (inactive) | 47.4 µM (inactive) | > 100 µM (inactive) | > 100 µM (inactive) | 50.9 µM (inactive) | 58.7 µM (inactive) |  | > 100 µM (inactive) | 26.4 µM (inactive) | > 100 µM | 57.3 µM (inactive) | > 100 µM (inactive) |  |
| CCOC(=O)c1ncn2c1[nH]c(=O)c1ccccc12 |  | > 100 µM (inactive) | > 10 µM (inactive) | > 100 µM (inactive) | > 100 µM (inactive) | > 100 µM (inactive) | > 100 µM (inactive) | > 100 µM (inactive) | 11.9 µM (inactive) | > 100 µM (inactive) | > 100 µM (inactive) |  | > 100 µM (inactive) | > 100 µM (inactive) | > 100 µM (inactive) | > 100 µM (inactive) | > 100 µM | > 100 µM (inactive) | > 100 µM (inactive) |  |
| CC1=NN=C(NCCN(C)C)C/C1=C/c1ccccc1Cl | > 100 µM (inactive) | > 100 µM (inactive) |  | > 100 µM (inactive) | > 100 µM (inactive) | > 100 µM (inactive) | > 100 µM (inactive) | > 100 µM (inactive) | 20 µM (inactive) | > 100 µM (inactive) | > 100 µM (inactive) |  | > 100 µM (inactive) | > 100 µM (inactive) | > 100 µM (inactive) | 95.1 µM (inactive) | > 100 µM | 90.6 µM (inactive) | 27.6 µM (inactive) | > 100 µM (inactive) |
